# Assay results as given in patent publication US20030207812A1, “Cd45 inhibitors” (priority 2002, published 2003).
# Where a SMILES comes first, the peptide text is derived from it. The star is where a group is joined. Phenanthrenequinone2carbonyl = O=C1C(=O)c2cc(C(=O)*)ccc2-c2ccccc21; 3Phenanthroyl(9,10-dioxo) = O=C1C(=O)c2ccc(C(=O)*)cc2-c2ccccc21
# What was measured:
# CD45 [1] = target: T1, CD45 (Homo sapiens, UniProt P08575); experiment: Phosphatase assay using pNPP as substrate; type: biochemical
# T1 construct: incubating the cytosolic portion of CD45 with the compounds and p-nitrophenyl phosphate (pNPP); purchased BIOMOL (Plymouth Meeting, Pa.)
# T1 sequence (P08575 599-1306 limits assumed): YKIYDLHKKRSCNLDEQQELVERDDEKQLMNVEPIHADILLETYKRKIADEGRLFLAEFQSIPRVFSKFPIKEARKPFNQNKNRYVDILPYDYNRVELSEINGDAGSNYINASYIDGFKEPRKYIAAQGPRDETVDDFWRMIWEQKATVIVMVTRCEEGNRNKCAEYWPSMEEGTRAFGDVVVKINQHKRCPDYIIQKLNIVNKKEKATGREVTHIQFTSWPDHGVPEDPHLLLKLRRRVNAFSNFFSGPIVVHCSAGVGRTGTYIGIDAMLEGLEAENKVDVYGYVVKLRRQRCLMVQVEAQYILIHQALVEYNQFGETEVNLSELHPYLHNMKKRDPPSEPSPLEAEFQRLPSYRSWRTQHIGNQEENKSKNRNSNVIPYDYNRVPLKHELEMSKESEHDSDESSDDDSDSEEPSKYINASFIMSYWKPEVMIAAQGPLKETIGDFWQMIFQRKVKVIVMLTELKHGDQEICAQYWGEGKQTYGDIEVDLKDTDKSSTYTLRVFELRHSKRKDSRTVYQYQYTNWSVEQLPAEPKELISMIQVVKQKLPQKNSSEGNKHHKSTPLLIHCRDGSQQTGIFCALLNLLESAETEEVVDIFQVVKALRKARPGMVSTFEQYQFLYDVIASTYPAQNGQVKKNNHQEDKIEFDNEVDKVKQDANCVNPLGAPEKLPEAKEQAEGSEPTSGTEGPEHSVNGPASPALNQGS
# Procedure: Phosphatase assay using pNPP as substrate:
# CD45 enzyme was obtained from BIOMOL (Plymouth Meeting, Pa.). Phosphatase activity was assayed in a buffer containing final concentrations of 25 mM imidazole at pH 7.0, 50 mM NaCl, 2.5 mM ethylenediaminetetraacetic acid (“EDTA”), 5 mM dithiothreitol (“DTT”) and 10 μg/mL bovine serum albumin (“BSA”) using pNPP as a substrate.
# CD45 [2] = target: T1, CD45; experiment: Phosphatase assay using lck 10-mer as substrate; type: biochemical
# Procedure, shortened: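 Enzyme incubated with lck phosphopeptide TEGQpYQPQP for 1.5 h at room temperature in 25 mM HEPES pH 7.2, 5 mM DTT, 10 μg/mL BSA, 5% DMSO final. Compounds tested from 30 to 0.01 μM. Released phosphate detected with malachite-type Green Reagent, absorbance at 620 nm after 30 min.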
# in vitro = settings: human
# [3] = CD45 phosphatase, lck carboxy-terminal peptide TEGQpYQPQP substrate, pH 7.2, read-out: Ick IC50
Structure (SMILES),"IC50 (CD45 [1]; pH 7, read-out: pNPP IC50) [µM]",IC50 (CD45 [2]) [µM],CC50 (in vitro) [µM],IC50 (CD45 [1]) [µM],IC50 (CD45 [2]; [3]) [µM]
"NC(=O)CC[C@H](NC(=O)[C@H](CCC(=O)O)NC(=O)c1ccc2c(c1)-c1ccccc1C(=O)C2=O)C(=O)NCC(=O)N[C@@H](CCC(N)=O)C(=O)N1CCC[C@H]1C(=O)O [Example 31] ({3Phenanthroyl(9,10-dioxo)}-EQGQP-OH)",0.6,2.5,> 30,,
"NC(=O)CC[C@H](NC(=O)CNC(=O)[C@H](CCC(=O)O)NC(=O)CNC(=O)c1ccc2c(c1)-c1ccccc1C(=O)C2=O)C(=O)N1CCC[C@H]1C(=O)O [Example 32] ({3Phenanthroyl(9,10-dioxo)}-GEGQP-OH)",0.7,2.3,> 30,,
"NC(=O)CC[C@H](NC(=O)c1ccc2c(c1)-c1ccccc1C(=O)C2=O)C(=O)N[C@@H](CCC(=O)O)C(=O)NCC(=O)N[C@@H](CCC(N)=O)C(=O)N1CCC[C@H]1C(=O)O [Example 33] ({3Phenanthroyl(9,10-dioxo)}-QEGQP-OH)",1.1,2.5,> 30,,
"NC(=O)CC[C@H](NC(=O)CNC(=O)c1ccc2c(c1)-c1ccccc1C(=O)C2=O)C(=O)NCC(=O)N[C@@H](CCC(=O)O)C(=O)N1CCC[C@H]1C(=O)O [Example 35] ({3Phenanthroyl(9,10-dioxo)}-GQGEP-OH)",0.9,1.4,> 30,,
"NC(=O)CC[C@H](NC(=O)[C@@H]1CCCN1C(=O)[C@H](CCC(N)=O)NC(=O)CNC(=O)c1ccc2c(c1)-c1ccccc1C(=O)C2=O)C(=O)NCC(=O)O [Example 36] ({3Phenanthroyl(9,10-dioxo)}-GQPQG-OH)",,,> 30,1,2.2
"NC(=O)CC[C@H](NC(=O)c1ccc2c(c1)-c1ccccc1C(=O)C2=O)C(=O)N[C@@H](CCC(N)=O)C(=O)N1CCC[C@H]1C(=O)N[C@@H](CCC(N)=O)C(=O)NCC(=O)O [Example 37] ({3Phenanthroyl(9,10-dioxo)}-QQPQG-OH)",,,> 30,1.1,2.1
"NC(=O)CC[C@H](NC(=O)CNC(=O)c1ccc2c(c1)-c1ccccc1C(=O)C2=O)C(=O)N1CCC[C@H]1C(=O)N[C@@H](CCC(=O)O)C(=O)NCC(=O)O [Example 39] ({3Phenanthroyl(9,10-dioxo)}-GQPEG-OH)",,,> 30,0.7,2.3
O=C(O)CC[C@H](NC(=O)[C@@H]1CCCN1C(=O)CNC(=O)CNC(=O)c1ccc2c(c1)C(=O)C(=O)c1ccccc1-2)C(=O)NCC(=O)O [Example 40] (Phenanthrenequinone2carbonyl-GGPEG-OH),0.6,3.9,> 30,,
O=C(O)CC[C@H](NC(=O)c1ccc2c(c1)C(=O)C(=O)c1ccccc1-2)C(=O)NCC(=O)N1CCC[C@H]1C(=O)N[C@@H](CCC(=O)O)C(=O)NCC(=O)O [Example 41] (Phenanthrenequinone2carbonyl-EGPEG-OH),1.4,3.5,> 30,,
N=C(N)NCCC[C@H](NC(=O)c1ccc2c(c1)C(=O)C(=O)c1ccccc1-2)C(=O)NCC(=O)N1CCC[C@H]1C(=O)N[C@@H](CCC(=O)O)C(=O)NCC(=O)O [Example 42] (Phenanthrenequinone2carbonyl-RGPEG-OH),0.9,3.5,> 30,,
O=C(O)CC[C@H](NC(=O)[C@@H]1CCCN1C(=O)[C@H](CCC(=O)O)NC(=O)CNC(=O)c1ccc2c(c1)C(=O)C(=O)c1ccccc1-2)C(=O)NCC(=O)O [Example 43] (Phenanthrenequinone2carbonyl-GEPEG-OH),1.9,3.8,> 30,,
O=C(O)CC[C@H](NC(=O)c1ccc2c(c1)C(=O)C(=O)c1ccccc1-2)C(=O)N[C@@H](CCC(=O)O)C(=O)N1CCC[C@H]1C(=O)N[C@@H](CCC(=O)O)C(=O)NCC(=O)O [Example 44] (Phenanthrenequinone2carbonyl-EEPEG-OH),1.1,3.8,> 30,,
N=C(N)NCCC[C@H](NC(=O)c1ccc2c(c1)C(=O)C(=O)c1ccccc1-2)C(=O)N[C@@H](CCC(=O)O)C(=O)N1CCC[C@H]1C(=O)N[C@@H](CCC(=O)O)C(=O)NCC(=O)O [Example 45] (Phenanthrenequinone2carbonyl-REPEG-OH),1.4,3.9,> 30,,
N=C(N)NCCC[C@H](NC(=O)CNC(=O)c1ccc2c(c1)C(=O)C(=O)c1ccccc1-2)C(=O)N1CCC[C@H]1C(=O)N[C@@H](CCC(=O)O)C(=O)NCC(=O)O [Example 46] (Phenanthrenequinone2carbonyl-GRPEG-OH),1,3.8,> 30,,
N=C(N)NCCC[C@H](NC(=O)[C@H](CCC(=O)O)NC(=O)c1ccc2c(c1)C(=O)C(=O)c1ccccc1-2)C(=O)N1CCC[C@H]1C(=O)N[C@@H](CCC(=O)O)C(=O)NCC(=O)O [Example 47] (Phenanthrenequinone2carbonyl-ERPEG-OH),0.7,4.2,> 30,,
N=C(N)NCCC[C@H](NC(=O)c1ccc2c(c1)C(=O)C(=O)c1ccccc1-2)C(=O)N[C@@H](CCCNC(=N)N)C(=O)N1CCC[C@H]1C(=O)N[C@@H](CCC(=O)O)C(=O)NCC(=O)O [Example 48] (Phenanthrenequinone2carbonyl-RRPEG-OH),0.6,5.7,> 30,,
N=C(N)NCCC[C@H](NC(=O)[C@@H]1CCCN1C(=O)CNC(=O)CNC(=O)c1ccc2c(c1)C(=O)C(=O)c1ccccc1-2)C(=O)NCC(=O)O [Example 49] (Phenanthrenequinone2carbonyl-GGPRG-OH),0.9,6.1,> 30,,
N=C(N)NCCC[C@H](NC(=O)[C@@H]1CCCN1C(=O)CNC(=O)[C@H](CCC(=O)O)NC(=O)c1ccc2c(c1)C(=O)C(=O)c1ccccc1-2)C(=O)NCC(=O)O [Example 50] (Phenanthrenequinone2carbonyl-EGPRG-OH),0.7,2.8,> 30,,
N=C(N)NCCC[C@H](NC(=O)c1ccc2c(c1)C(=O)C(=O)c1ccccc1-2)C(=O)NCC(=O)N1CCC[C@H]1C(=O)N[C@@H](CCCNC(=N)N)C(=O)NCC(=O)O [Example 51] (Phenanthrenequinone2carbonyl-RGPRG-OH),1.1,4.8,> 30,,
N=C(N)NCCC[C@H](NC(=O)[C@@H]1CCCN1C(=O)[C@H](CCC(=O)O)NC(=O)CNC(=O)c1ccc2c(c1)C(=O)C(=O)c1ccccc1-2)C(=O)NCC(=O)O [Example 52] (Phenanthrenequinone2carbonyl-GEPRG-OH),0.8,3,> 30,,
N=C(N)NCCC[C@H](NC(=O)[C@@H]1CCCN1C(=O)[C@H](CCC(=O)O)NC(=O)[C@H](CCC(=O)O)NC(=O)c1ccc2c(c1)C(=O)C(=O)c1ccccc1-2)C(=O)NCC(=O)O [Example 53] (Phenanthrenequinone2carbonyl-EEPRG-OH),1,3.7,> 30,,
N=C(N)NCCC[C@H](NC(=O)c1ccc2c(c1)C(=O)C(=O)c1ccccc1-2)C(=O)N[C@@H](CCC(=O)O)C(=O)N1CCC[C@H]1C(=O)N[C@@H](CCCNC(=N)N)C(=O)NCC(=O)O [Example 54] (Phenanthrenequinone2carbonyl-REPRG-OH),,,> 30,0.9,3.9
N=C(N)NCCC[C@H](NC(=O)[C@@H]1CCCN1C(=O)[C@H](CCCNC(=N)N)NC(=O)CNC(=O)c1ccc2c(c1)C(=O)C(=O)c1ccccc1-2)C(=O)NCC(=O)O [Example 55] (Phenanthrenequinone2carbonyl-GRPRG-OH),1.4,4.7,> 30,,
N=C(N)NCCC[C@H](NC(=O)[C@@H]1CCCN1C(=O)[C@H](CCCNC(=N)N)NC(=O)[C@H](CCC(=O)O)NC(=O)c1ccc2c(c1)C(=O)C(=O)c1ccccc1-2)C(=O)NCC(=O)O [Example 56] (Phenanthrenequinone2carbonyl-ERPRG-OH),0.8,2.3,> 30,,
N=C(N)NCCC[C@H](NC(=O)c1ccc2c(c1)C(=O)C(=O)c1ccccc1-2)C(=O)N[C@@H](CCCNC(=N)N)C(=O)N1CCC[C@H]1C(=O)N[C@@H](CCCNC(=N)N)C(=O)NCC(=O)O [Example 57] (Phenanthrenequinone2carbonyl-RRPRG-OH),1.3,3.2,> 30,,
